{
  "source": "patent US9173935B2",
  "about": "“Phospholipid drug analogs” (Telormedix SA, priority 2010, dated 2015)",
  "key": {"CYP2E1": {"target": "CYP2E1 (Homo sapiens (Human), UniProt P05181)", "sequence (P05181 whole entry, looked up)": "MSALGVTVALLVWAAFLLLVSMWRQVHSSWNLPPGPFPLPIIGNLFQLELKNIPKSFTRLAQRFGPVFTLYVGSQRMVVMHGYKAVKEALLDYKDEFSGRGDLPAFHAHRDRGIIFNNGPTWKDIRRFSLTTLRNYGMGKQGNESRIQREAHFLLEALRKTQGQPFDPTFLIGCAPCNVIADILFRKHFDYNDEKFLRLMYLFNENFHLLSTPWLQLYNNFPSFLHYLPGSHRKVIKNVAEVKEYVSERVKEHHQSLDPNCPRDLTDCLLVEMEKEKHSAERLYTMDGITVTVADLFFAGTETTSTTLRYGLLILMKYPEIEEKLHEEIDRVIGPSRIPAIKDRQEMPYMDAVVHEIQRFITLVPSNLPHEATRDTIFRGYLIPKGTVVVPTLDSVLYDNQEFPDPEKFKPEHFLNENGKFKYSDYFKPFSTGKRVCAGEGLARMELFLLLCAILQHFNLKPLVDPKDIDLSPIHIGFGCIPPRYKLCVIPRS", "assay": "Fluorescent High Throughput P450 assay, CYP2E1", "type": "biochemical", "details": "substrate MFC; read-out: CYP2E1 IC50 (Mean ± S.D.)", "description": "(§2) Inhibition of the P450 isoforms was measured in specific assays using specific substrates that become fluorescent upon CYP metabolism. Compounds, dissolved in ACN (acetonitrile) (CYP2E1, CYP2C8, CYP2B6, CYP3A5) or DMSO (all remaining isoforms), were tested in duplicate (n=2) in concentration-response curves (eight concentrations) in a 96-well plate containing incubation/NADPH regenerating buffer. Specific isoenzymes and substrates were added and incubated at 37° C. Reactions were terminated at different times, depending on the assays, and plates read on a Fluoroskan Ascent at the appropriate emission/excitation wavelengths. Concentration-response curves performed in duplicate for known inhibitors for each isoenzyme were tested in every assay as positive control."}, "[1]": {"tested_on": "recombinant protein antigens from Plasmodium falciparum and Mycobacterium ulcerans", "assay": "Pilot immunization study with adjuvanted protein antigens", "type": "in vivo, mice", "details": "three s.c. immunizations", "protocol": "A pilot immunization study was conducted using Compound A and SC12 adjuvanted protein antigens. The immunization experiments were performed with two recombinant proteins expressed in E. coli. One antigen was derived from the malaria parasite Plasmodium falciparum and the other one from Mycobacterium ulcerans, which cause the ulcerative skin disease Buruli ulcer."}, "CYP2D6": {"target": "CYP2D6 (Homo sapiens (Human), UniProt P10635)", "sequence (P10635 whole entry, looked up)": "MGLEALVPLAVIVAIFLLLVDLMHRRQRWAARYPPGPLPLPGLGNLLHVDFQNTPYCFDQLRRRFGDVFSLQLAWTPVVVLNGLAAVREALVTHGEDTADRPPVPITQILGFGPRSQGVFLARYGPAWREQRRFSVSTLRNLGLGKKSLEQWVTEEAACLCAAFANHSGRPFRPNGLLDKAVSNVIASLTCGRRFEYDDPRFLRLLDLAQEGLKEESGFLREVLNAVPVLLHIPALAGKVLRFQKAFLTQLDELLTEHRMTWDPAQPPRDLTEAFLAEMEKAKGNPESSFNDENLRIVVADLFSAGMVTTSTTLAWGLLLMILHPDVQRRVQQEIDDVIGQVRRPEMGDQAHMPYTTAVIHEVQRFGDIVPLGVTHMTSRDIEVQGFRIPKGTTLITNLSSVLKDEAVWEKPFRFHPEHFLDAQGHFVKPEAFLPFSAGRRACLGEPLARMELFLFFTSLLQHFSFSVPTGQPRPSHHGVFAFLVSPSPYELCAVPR", "assay": "Fluorescent High Throughput P450 assay, CYP2D6", "type": "biochemical", "details": "substrate AMMC; read-out: CYP2D6 IC50 (Mean ± S.D.)", "description": "as §2"}, "[2]": {"tested_on": "Salmonella typhimurium TA1535, TA1537, TA98, TA100", "assay": "Bacterial mutation assay, Salmonella typhimurium", "details": "absence or presence of S9 metabolism", "protocol": "(§1) The five tester strains TA1535, TA1537, TA98, TA100 and WP2 uvrA were used. Experiments were performed both in the absence and presence of metabolic activation, using liver S9 fraction from rats pre-treated with phenobarbitone and betanaphthoflavone. SC12 was used as a solution in dimethylsulfoxide (DMSO)."}, "[3]": {"tested_on": "Escherichia coli WP2 uvrA", "assay": "Bacterial mutation assay, Escherichia coli", "details": "absence or presence of S9 metabolism", "protocol": "as §1"}, "whole blood": {"tested_on": "whole blood", "assay": "Cytokine secretion in human whole blood assay (ELISA)", "type": "cell-based", "protocol": "A volume of approximately 55 mL fresh whole blood was drawn in heparinized Vacutainers from three healthy adult anonymous volunteers as described (J. A. Ida, Journal of Immunol Methods, 310, 2006, 86-99). […] Before drawing the blood, the compounds were added to 96 well round bottom plates in a 10× diluted sample at 20 ul. The compounds were diluted in RPMI media without serum but with antibiotics. Antibiotics were added at a 10× concentration. After drawing the blood, the whole blood sample was gently mixed to obtain a homogeneous sample, and 180 ul was added to each well.\nAfter 6 hours and 24 hours incubation, plasma was removed for ELISA (IL-6, IL-10, IL-12p40 and IFN-alpha). ELISA was made at the 6 and 24 hours time point for all concentrations. After 24 hours incubation with selected compound concentrations, cells were analyzed for activation markers by FACS.\nAll compounds were setup in concentrations at 0-0.01-0.03-0.1-0.5-2.0-10.0 micromolar as the final concentration. Vehicle control was DMSO control, where we used the highest concentration used for the compounds. After addition of blood, all plates were gently agitated at 37° C. and 5% CO2 until harvest. The samples were removed after 6 or 24 hours incubation, and pooled into appropriate tubes (2 ml).\nConcentrations of cytokines were determined by ELISA from R&D Systems. The results were analyzed in Graph Pad Prism in order to prepare dose-response\ncurves, and for determination of EC50 values. FACS analysis was made by using Becton-Dickinson FACSDiva software and subsequently illustrated in Graph Pad Prism."}, "[4]": {"assay": "Serum exposure after intravesical chronic treatment", "protocol": "Serum samples were taken at time points: day 0, 2 hours, day 1, 24 hours, and day 6, 2 hours.\nThe plate was shaken for 10 minutes and filtered under vacuum (5-10 mm Hg). […] The plate was shaken for 10 minutes and filtered under vacuum (5-10 mm Hg). Samples were evaporated and re-suspended in 70 microliters of acetonitrile/methanol 1:1. […] Column: Acquity BEH C18 50×2.1 mm 1.7 micrometers; injection volume 5 microliters, T column 50° C. […] Column: Acquity BEH C8 50×2.1 mm 1.7 micrometers injection. volume 10 microliters, T column 50° C."}, "[5]": {"tested_on": "Cutaneous Squamous Cell Carcinoma cell lines SCL-I, SCL-II, SCC-12, SCC-13", "assay": "Direct proapoptotic and cytotoxic effects on SCC cells (real-time cell analysis, microscopy)", "type": "cell-based, human", "protocol": "SCC cells are grown under standard conditions (10% FBS).\nTime and dose dependency of effects on total cell numbers have been investigated by real-time cell analysis, which is based on continuous monitoring of electric conductance in microtiter wells (E-plates, Roche), which corresponds to the cell numbers. […] For these assays 4 cell lines should be used to obtain a representative overview on the effects on SCC cells."}, "[6]": {"tested_on": "HLA-DR+/CD11c-/CD123+ pDCs", "assay": "FACS analysis of plasmacytoid DC activation in whole blood", "type": "cell-based, human", "details": "24 hours, 0.1 and 0.5 uM, three donors", "protocol": "A flow cytometric analysis was performed on whole blood from three donors after treatment with two compound concentrations for 24 h. The FACS analysis for donor 1 and donor 2 was made on another day than donor 3. The compound concentrations were as follows:\nThe FACS analysis was used to identify whether the test compounds could induce activation of B cells, and two different subsets of dendritic cells, namely the myeloid CD11c+/CD123− DCs and the plasmacytoid CD11c−/CD123+ DCs. The following markers were studied to identify the activation status of the different subsets:\nThe FACS staining was performed according to the manufacturer's instructions. Lysis of red blood cells was performed before FACS staining in order to minimize auto-florescence. To include as many B cells and DCs in the study as possible the FACS analyses were performed on 500,000 cells in total for each staining. A P1 gate was set only to include relevant cells on FSC vs. SSC (see FIGS. 12-15). The results of the individual analysis were present as Mean Fluorescence Intensity\nThe analysis of pDCs was based on HLA-DR+/CD11c−/CD123+ cells, thus all analyzed cells were included in the HLA-DR+ (P3) gate and CD11c−/CD123+(Q1) gate. (FIGS. 13-15)."}, "[7]": {"tested_on": "AY-27 rat bladder cancer cell-line", "details": "in vivo"}, "[8]": {"details": "Day 1, 24 hours, LLOQ 0.5 ng/ml SC12, 2.5 ng/ml Imiquimod"}, "[9]": {"details": "Day 6, 2 hours, LLOQ 0.5 ng/ml SC12, 2.5 ng/ml Imiquimod"}},
  "note": "Several values for one entry are separate records, joined by “and”; a condition that tells them apart may be missing. Equal values may be shown once. Read-outs that look alike come from different tables or passages of the source.",
  "data": [
    {"smiles": "CCCCCCCCCCCC(=O)OCC(COP(=O)(O)OCCNC(=O)c1ccc(Cn2c(=O)[nH]c3c(N)nc(OCCOC)nc32)cc1)OC(=O)CCCCCCCCCCC", "note": "(stereo not shown) [SC12]", "values": [
      {"measurement": "IC50", "setting": "CYP2E1", "value": "9200 ± 100", "unit": "nM"},
      {"measurement": "Local side effects (swelling, ulcerations)", "setting": "[1]; 10 nMol adjuvant", "value": "No local side effects"},
      {"measurement": "IgG responses against target antigens", "setting": "[1]; 20 micrograms antigen with 10 nMol adjuvant", "value": "all 20 immunized mice had developed IgG responses"},
      {"measurement": "IC50", "setting": "CYP2D6", "value": "67000 ± 3800", "unit": "nM"},
      {"measurement": "Toxicity to tester strains", "setting": "[2]; 50.0-5000 micrograms/plate", "value": "No toxicity was observed"},
      {"measurement": "Reverse mutation", "setting": "[2]; up to 5000 micrograms/plate", "value": "does not induce reverse mutation"},
      {"measurement": "Toxicity to tester strains", "setting": "[3]; 50.0-5000 micrograms/plate", "value": "No toxicity was observed"},
      {"measurement": "Reverse mutation", "setting": "[3]; up to 5000 micrograms/plate", "value": "does not induce reverse mutation"},
      {"measurement": "IL-10 production", "setting": "whole blood; 6 hours incubation", "value": "no IL-10 production was seen"},
      {"measurement": "EC50", "setting": "whole blood; Donor 1, read-out: EC50-IFN-alpha, 24 h Incubation", "value": 200, "unit": "nM"},
      {"measurement": "EC50", "setting": "whole blood; Donor 1, read-out: EC50-IL-6, 24 h Incubation", "value": 220, "unit": "nM"},
      {"measurement": "EC50", "setting": "whole blood; Donor 1, read-out: EC50-IL-10, 24 h Incubation", "value": 1340, "unit": "nM"},
      {"measurement": "EC50", "setting": "whole blood; Donor 1, read-out: EC50-IL-12p40, 24 h Incubation", "value": 4100, "unit": "nM"},
      {"measurement": "EC50", "setting": "whole blood; Donor 2, read-out: EC50-IFN-alpha, 24 h Incubation", "value": 110, "unit": "nM"},
      {"measurement": "EC50", "setting": "whole blood; Donor 2, read-out: EC50-IL-6, 24 h Incubation", "value": 60, "unit": "nM"},
      {"measurement": "EC50", "setting": "whole blood; Donor 2, read-out: EC50-IL-10, 24 h Incubation", "value": 410, "unit": "nM"},
      {"measurement": "EC50", "setting": "whole blood; Donor 2, read-out: EC50-IL-12p40, 24 h Incubation", "value": 1420, "unit": "nM"},
      {"measurement": "EC50", "setting": "whole blood; Donor 3, read-out: EC50-IFN-alpha, 24 h Incubation", "value": 240, "unit": "nM"},
      {"measurement": "EC50", "setting": "whole blood; Donor 3, read-out: EC50-IL-6, 24 h Incubation", "value": 170, "unit": "nM"},
      {"measurement": "EC50", "setting": "whole blood; Donor 3, read-out: EC50-IL-10, 24 h Incubation", "value": 9000, "unit": "nM"},
      {"measurement": "EC50", "setting": "whole blood; Donor 3, read-out: EC50-IL-12p40, 24 h Incubation", "value": 14200, "unit": "nM"},
      {"measurement": "EC50", "setting": "whole blood; read-out: EC50-IFN-alpha, 6 h Incubation, Donor 1", "value": 980, "unit": "nM"},
      {"measurement": "EC50", "setting": "whole blood; read-out: EC50-IFN-alpha, 6 h Incubation, Donor 2", "value": 830, "unit": "nM"},
      {"measurement": "EC50", "setting": "whole blood; read-out: EC50-IFN-alpha, 6 h Incubation, Donor 3", "value": 1660, "unit": "nM"},
      {"measurement": "EC50", "setting": "whole blood; read-out: EC50-IL-6, 6 h Incubation, Donor 1", "value": 570, "unit": "nM"},
      {"measurement": "EC50", "setting": "whole blood; read-out: EC50-IL-6, 6 h Incubation, Donor 2", "value": 180, "unit": "nM"},
      {"measurement": "EC50", "setting": "whole blood; read-out: EC50-IL-6, 6 h Incubation, Donor 3", "value": 370, "unit": "nM"},
      {"measurement": "EC50", "setting": "whole blood; read-out: EC50-IL-12, 6 h Incubation (IL-12p40), Donor 2", "value": 2360, "unit": "nM"},
      {"measurement": "EC50", "setting": "whole blood; read-out: EC50-IL-12, 6 h Incubation (IL-12p40), Donor 3", "value": 3560, "unit": "nM"},
      {"measurement": "Levels in serum, Mean ± S.D.", "setting": "[4]; Day 0, 2 hours", "value": "0.5 ± 0.5", "unit": "ng/mL"},
      {"measurement": "Levels in serum, individual mice", "setting": "[4]; Day 0, 2 hours, intravesical Imiquimod 208 nmol or SC12 206.5 nmol, LLOQ 0.5 ng/ml SC12, 2.5 ng/ml Imiquimod", "value": "<LLOQ (2×) and 1.0 ng/ml and 0.5 ng/ml"},
      {"measurement": "Levels in serum, Mean ± S.D.", "setting": "[4]; [8]", "value": "<LLOQ"},
      {"measurement": "Levels in serum, individual mice", "setting": "[4]; [8]", "value": "<LLOQ"},
      {"measurement": "Levels in serum, Mean ± S.D.", "setting": "[4]; [9]", "value": "<LLOQ"},
      {"measurement": "Levels in serum, individual mice", "setting": "[4]; [9]", "value": "<LLOQ"},
      {"measurement": "Cell numbers (electric conductance, real-time cell analysis)", "setting": "[5]; 4 cutaneous SCC cell lines, versus untreated control", "value": "reduced cell numbers"},
      {"measurement": "Morphology and proliferation (microscopy)", "setting": "[5]; day 3, 120 microM", "value": "cell detachment, morphological changes and inhibition of proliferation"},
      {"measurement": "CD80 expression on pDCs", "setting": "[6]", "value": "induces a slightly higher CD80 expression than compound A"},
      {"measurement": "CD86 expression on pDCs", "setting": "[6]", "value": "tendency to induce higher CD86 expression than compound A"},
      {"measurement": "Signs of toxicity", "setting": "[7]", "value": "No signs of toxicity"}
    ]}
  ]
}
